In US20200383985A1, “Inhibitors of Protease Activated Receptor-2” (Endosome Therapeutics, Inc., priority 2017, published 2020):

How the values were obtained:
PKC and cAMP = test: FRET assays of PKC and cAMP in HEK293 cells; format: cell-based
Method: I-343, but not SCH530348, inhibited trypsin stimulation of PKC and cAMP, which thus depend on PAR2 (FIGS. 19G and H). […] The sustained plasma membrane cAMP response to trypsin support the existence of mechanisms that allow persistent PAR2 signaling, which warrant further investigation.
HEK293 cells were cultured in DMEM supplemented with 10% (v/v) FBS (5% CO2, 37° C.). When necessary serum restriction was achieved by replacing culture medium with DMEM containing 0.5% FBS overnight. Cells were transiently transfected using polyethylenimine (PEI) (1:6 DNA:PEI).
HEK293 cells were transiently transfected in 10 cm dishes (˜50% confluency) with Flag-PAR2-HA (2.5 μg) and FRET biosensors CytoEKAR or NucEKAR (2.5 μg) (Jensen, D. D. et al., Sci Transl Med. 2017, 9(392), eaal3447; Thomsen, A. R. B., et al., Cell 2016, 166(4): 907-919). In experiments examining the role of dynamin, cells were transfected with FLAG-PAR2-HA (1.25 μg), FRET biosensor (1.25 μg) and either DynWT-HA, DynK44E-HA or pcDNA3.1 (2.5 μg). At 24 h after transfection, cells were seeded on ViewPlate-96 well plates (PerkinElmer). FRET was assessed 72 h post-transfection, following overnight serum restriction. Cells were equilibrated in HBSS-HEPES (30 min, 37° C.). FRET was measured using a PHERAstar FSX Microplate Reader (BMG LabTech). For CFP/YFP emission ratio analysis, cells were sequentially excited using a CFP filter (425/10 nm) with emission measured using YFP (550/50 nm) and CFP (490/20 nm) filters. FRET was measured before and after stimulation with trypsin (10 nM), NE (100 nM), CS (100 nM), phorbol 12,13-dibutyrate, PDBu (positive control, 1 μM), or vehicle. FRET ratios (donor/acceptor intensity for EKAR, or acceptor/donor intensity for CKAR and Epac) were calculated and corrected to baseline and vehicle treatments to determine ligand-induced FRET (ΔFRET). Treatment effects were determined by comparison of area under the curve values. Signalling inhibitors were dissolved in HBSS-HEPES. PS2 and PS2 inact were dissolved in HBSS-HEPES+1% DMSO. […]

mouse DRG neurons = test: Patch clamp rheobase of DRG neurons: IBS-D biopsy supernatant-induced hyperexcitability; format: cell-based; settings: I-343 10 μM, Dy4 30 μM, PD98059 50 μM
Method: An investigation as whether proteases from mucosal biopsies of IBS patients cause a persistent hyperexcitability of nociceptors was conducted by a mechanism that entails endosomal signaling of PAR2. Biopsies of colonic mucosa from patients with diarrhea-predominant IBS (IBS-D) or healthy control (HC) subjects were placed in culture medium (24 h, 37° C.). Mouse DRG neurons were then exposed to biopsy supernatants (30 min, 37° C.) and washed. Rheobase was measured 30 min after washing to assess persistent hyperexcitability. Supernatants of biopsies from IBS-D patients caused a persistent decrease in rheobase, consistent with hyperexcitability, when compared to supernatants from HC subjects (rheobase at 30 min: HC, 78.33±4.41 pA, 12 neurons, supernatant from 4 HC; IBS-D, 54.55±4.74 pA, 11 neurons, supernatant from 4 IBS-D; P<0.05; ANOVA, Tukey's multiple comparisons test) (FIG. 6A, B). I-343 (10 μM), Dy4 (dynamin inhibitor, 30 μM) and PD98059 (MEK1 inhibitor, 50 μM) abolished IBS-D-induced hyperexcitability of nociceptors (FIG. 6A-D).
The Queen's University Human Ethics Committee approved human studies. All subjects gave informed consent. Endoscopic biopsies were obtained from the descending colon of 13 adult IBS-D patients (12 female) diagnosed using ROME III criteria for diarrhea predominant IBS and of 12 health controls. All IBS patients had symptoms greater than 1 year and most were greater than 5 years. Celiac disease was excluded by blood test and patients over 40 years with daily diarrhea were biopsied at the time of colonoscopy to exclude microscopic colitis. […] Biopsies (8 samples per patient) were incubated in 250 μl of RPMI medium containing 10% fetal calf serum, penicillin/streptomycin and gentamicin/amphotericin B (95% O2/5% […], 24 h, 37° C.). Supernatants were stored at −80° C. Supernatants from 4-6 patients were pooled and studied in individual experiments.
DRG innervating the colon (T9-T13) were collected from C57BL/6 mice. Ganglia were digested by incubation in collagenase IV (1 mg/ml, Worthington) and dispase (4 mg/ml, Roche) (10 min, 37° C.). DRG were triturated with a fire-polished Pasteur pipette, and further digested (5 min, 37° C.). Neurons were washed, plated onto laminin- (0.017 mg/ml) and poly-D-lysine- (2 mg/ml) coated glass coverslips, and were maintained in F12 medium containing 10% fetal calf serum, penicillin and streptomycin (95% air, 5% CO2, 16 h, 37° C.) until retrieval for electrophysiological studies.
Small-diameter (<30 pF capacitance) neurons were studied because they display characteristics of nociceptors (Valdez-Morales E. E. et al., Am J Gastroenterol 2013, 108(10): 1634-1643). Changes in excitability were quantified by measuring rheobase. Whole-cell perforated patch-clamp recordings were made using Amphotericin B (240 μg/ml, Sigma Aldrich) in current clamp mode at room temperature. The recording chamber was perfused with external solution at 2 ml/min. Recordings were made using Multiclamp 700B or Axopatch 200B amplifiers, digitized by Digidata 1440A or 1322A, and processed using pClamp 10.1 software (Molecular Devices). Solutions had the composition (mM): pipette—K-gluconate 110, KC130, HEPES 10, MgCl2 1, CaCl2 2; pH 7.25 with 1 M KOH; external—NaCl 140, KCl 5 HEPES 10, glucose 10, MgCl2 1, CaCl2 2; pH to 7.3-7.4 with 3 M NaOH. […] Neurons were also preincubated with trypsin (50 nM, 10 min), NE (390 nM, 30 min), CS (500 nM, 60 min), or vehicle (37° C.), and washed. Rheobase was measured at T 0 or T 30 min after washing. To investigate mechanisms of protease-evoked effects, neurons were incubated with I-343 (100 nM, 300 nM, 10 μM, 30 min preincubation), SCH79797 (1 μM, 10 min), Dy4 (30 μM, 30 min), PS2 (15 μM, 30 min), PD98059 (50 μM, 30 min), GF109203X (10 μM, 30 min), or vehicle (preincubation and inclusion throughout). In experiments using the tripartite antagonist, neurons were preincubated with Compound 10 (30 μM, 60 min, 37° C.) or vehicle and washed. […]

Row | Compound | trypsin stimulation of PKC and cAMP (PKC and cAMP; HEK293 cells) | IBS-D-induced hyperexcitability of nociceptors (mouse DRG neurons) | rheobase of neurons exposed to HC supernatant (mouse DRG neurons) | PKC activation and cAMP generation at the plasma membrane and in the cytosol (PKC and cAMP; trypsin 10 nM)
1 | Cc1nc(C(=O)N2CCN(C(=O)c3cn4nc(-c5ccc(F)cc5)cc(C(C)(C)C)c4n3)C(C)(C)C2)n[nH]1 [Compound I-343, (8-(tert-butyl)-6-(4-fluorophenyl)imidazo[1,2-b]pyridazin-2-yl)(2,2-dimethyl-4-(5-methyl-1H-1,2,4-triazole-3-carbonyl)piperazin-1-yl)methanone] | inhibited | abolished | no effect | –
2 | O=C(N/N=C/c1cc(O)c(O)cc1O)c1cc2ccccc2cc1O [Dy4] | – | abolished | non-significant decrease | –
3 | trypsin | – | – | – | rapid and sustained activation
